Results published in PubChem BioAssay AID1918931 (Molecular Pharmacology Branch, DTP, NCI, 2023).

Test system: 138582-337-R-J1-PDC complex spheroid viability
Assay: Anticancer human tumor 138582-337-R-J1-PDC patient-derived Merkel cell tumor cell line growth inhibition
Details: for IC50: curve of first compound; for viability, T/C: stronger effect = lower value; active = viability on the fitted dose curve at most 10% of control; inactive = the rest
In short: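 Drug combinations with the LSD1 inhibitor iadademstat tested on tumor cells co-cultured as spheroids with endothelial cells and mesenchymal stem cells. Concentrations descended in half-log increments from clinical Cmax or 10 microM.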
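Also: spheroids exposed to agents for 7 days.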
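For viability, T/C in this document: 100% = DMSO vehicle control viability.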

COc1ccc([C@@H](O)c2cc(-c3ncnc4cc(N5CCOCC5)ccc34)c(F)cc2Cl)nn1 + NC1CCC(NC2CC2c2ccccc2)CC1
2570 nM: IC50 (second compound 0.316 µM)
inactive: viability, T/C (second compound 0.1 µM, first compound 0.0316 µM) 80.6% | viability, T/C (second compound 0.1 µM, first compound 0.1 µM) 96.2% | viability, T/C (second compound 0.1 µM, first compound 0.316 µM) 76.5% | viability, T/C (second compound 0.1 µM, first compound 1 µM) 54.6% | viability, T/C (second compound 0.1 µM, first compound 3.16 µM) 44.9% | viability, T/C (second compound 0.1 µM, first compound 10 µM) 32.9% | viability, T/C (second compound 0.316 µM, first compound 0.0316 µM) 76.4% | viability, T/C (second compound 0.316 µM, first compound 0.1 µM) 77.3% | viability, T/C (second compound 0.316 µM, first compound 0.316 µM) 62.6% | viability, T/C (second compound 0.316 µM, first compound 1 µM) 63.1% | viability, T/C (second compound 0.316 µM, first compound 3.16 µM) 46.8% | viability, T/C (second compound 0.316 µM, first compound 10 µM) 33.3% | viability, T/C (second compound 1 µM, first compound 0.0316 µM) 83.1% | viability, T/C (second compound 1 µM, first compound 0.1 µM) 74.5% | viability, T/C (second compound 1 µM, first compound 0.316 µM) 71.7% | viability, T/C (second compound 1 µM, first compound 1 µM) 50.3% | viability, T/C (second compound 1 µM, first compound 3.16 µM) 44.7% | viability, T/C (second compound 1 µM, first compound 10 µM) 33.7% | viability, T/C (second compound 3.16 µM, first compound 0.0316 µM) 81.1% | viability, T/C (second compound 3.16 µM, first compound 0.1 µM) 90.1% | viability, T/C (second compound 3.16 µM, first compound 0.316 µM) 69.1% | viability, T/C (second compound 3.16 µM, first compound 1 µM) 61.2% | viability, T/C (second compound 3.16 µM, first compound 3.16 µM) 40.7% | viability, T/C (second compound 3.16 µM, first compound 10 µM) 24.2% | viability, T/C (second compound 10 µM, first compound 0.0316 µM) 87.2% | viability, T/C (second compound 10 µM, first compound 0.1 µM) 72.5% | viability, T/C (second compound 10 µM, first compound 0.316 µM) 75.9% | viability, T/C (second compound 10 µM, first compound 1 µM) 47.1% | viability, T/C (second compound 10 µM, first compound 3.16 µM) 43.4% | viability, T/C (second compound 10 µM, first compound 10 µM) 14.2%
1560 nM: IC50 (second compound 0.1 µM)
1480 nM: IC50 (second compound 1 µM)
1410 nM: IC50 (second compound 10 µM)
1800 nM: IC50 (second compound 3.16 µM)
